Measurements taken from US4829086A, “Soft β-adrenergic blocking agents” (priority 1985, dated 1989).
“Also recorded” adds a separate entry of the source. Counter-ions that a name gives are not always drawn.

Assays:
[1] = Hydrolytic rate in 0.01 N aqueous sodium hydroxide, pH 12.0; type: physicochemical; settings: pH 12.0, ionic strength 0.10 M (NaCl), 27.3 ± 0.2° C.
Description: Analytical Methods. A high pressure liquid chromatography (HPLC) method was developed for the determination of the rate constants. The chromatographic analysis was performed in a system consisting of Waters Associates Model 600-A Solvent Delivery System, Model U-6K Injector and Model 440 Dual Channel Absorbance Detector operated at 254 and 280 nm. A 30 cm×3.9 mm (internal diameter) reverse phase μBondpack C18 column (Waters Associates), operated at ambient temperature, was used for all separations. When plasma samples were analyzed, the column was protected with a 2.3 cm×3.9 mm (internal diameter) Guard Column (Waters) packed with μBondpack C18/Corasil packing material. The mobile phase used for the separation of 17 and its degradation product, 5, consisted of water, 1-hexane sulfonic acid in acetic acid (B-6 reagent, Waters), 0.1M triethanolamine and methanol (100:1:100:799). […] For the separation of compounds 10-16 and 18 and their degradation product 5, a mobile phase consisting of water, 1-hexane sulfonic acid in acetic acid (B-6 reagent, Waters), 0.1M triethanolamine and methanol (390:1:10:599) was used.
Determination of the Hydrolytic Rate Constants in Aqueous Solutions. A 0.01M phosphate buffer and 0.01N sodium hydroxide solution were prepared from freshly distilled deionized water. This ionic strength was maintained at 0.1M with sodium chloride. The pH of the phosphate buffer was determined at 37.0° C. with a pH meter standardized at this temperature. For determination of the hydrolytic rate constants, a fresh concentrated solution of the ester in methanol was added to the hydrolytic medium previously equilibrated to the desired temperature and mixed thoroughly to result in an initial concentration of about 5×10^-4 mol. liter^-1. All reactions were run under pseudo first order conditions. Samples of 25 μL were injected into the column at various time intervals and the pseudo first order rate constants were determined from disappearance of the compound by linear regression of natural logarithm of the peak height versus time plots. The half-life and standard error of the rate constant were calculated for each run.

[2] = tested on: blood pressure response to isoproterenol; test: Blood pressure response to isoproterenol in rats; type: in vivo, male Spraque-Dawley rats; settings: 6 mg/kg i.p.; 10 minutes after isoproterenol
Excerpt: Initial Drug Screening Protocol. Thirty-two male Spraque-Dawley rats (Blue Spruce Farms) initially weighing 300-450 gm were divided into seven different groups, each for a different drug to be tested: 12(n=4), 14(n=4), 17(n=5), 13(n=4) and 18(n=3), corresponding to the designated compounds 12, 14, 17, 13 and 18 (number of animals), respectively. The other two groups were controls (n=8, isoproterenol alone pretreated with carrier) and those treated with a known β-blocker, dl-propranolol (n=3). Ech animal was anesthetized with sodium pentobarbital (45 mg/kg) and the carotid artery was cannulated with PE-50 tubing. The cannula was subcutaneously threaded around the neck and exteriorized dorsally between the shoulder blades. Th cannula was filled with a heparin solution (300 μg/mL) and sealed with a solid 22 gauge stylet. The animals were housed in individual stainless steel cages, and two days were allowed for recovery from the surgery. Food and water were provided ad libitum. On the day of the experiment, the blood pressure and heart rate of each rat were monitored with a pressure transducer (Narco-Bio model P-1000) and the data recorded on a four-channel physiograph (Narco-Bio systems Marck IV). One hour was allowed as an equilibration period before any drugs were administered. All beta blockers were administered intraperitoneally at a dose of 6 mg/kg. Compounds 12 and 14 and dl-proranolol were dissolved in normal saline while compounds 13, 17 and 18 were dissolved in an ethanol: water solution (3:1). Depending on the trial, controls were administered the appropriate carrier. One hour after administration of the blocker, isoproterenol (Isuprel®, Wintrop Laboratories) was administered subcutaneously at a dose of 25 μg/kg. Blood pressures and heart rate also were recorded 3, 5, 10, 15, 20, 30, 45 and 60 minutes after isoproterenol administration. Both control and experimental animals were unrestrained and free moving in their home cage throughout the experiment. […] However, significant differences in the mean heart rate response amoung the 7 groups were observed: *p<0.005;**p<0.025. Comparisons between groups were made by the Newman-Keuls procedure with significance set at the 95% confidence interval. […] All data are shown as mean±standard error of the mean.
Symbols are the same as those described for FIG. 1. […] Data are shown as mean±standard error of the mean.

[3] = tested on: heart rate response to isoproterenol (β-adrenergic); test: Duration of action study, heart rate in rats; type: in vivo, male Sprague Dawley rats; settings: 6 mg/kg i.p.; for resting heart rate prior to isoproterenol: mean ± SEM
Description: Duration of Action Studies. An additional 38 male Sprague Dawley rats (Blue Spruce Farms) initially weighing 268 to 290 gm were anesthetized with sodium pentobarbital (45 mg/kg i.p.), and the carotid artery was cannulated as previously described. On the day of experimentation, after a one-hour equilibration period, initial baseline conditions of basal heart rate and mean blood pressures were recorded. The beta blocker (17) was administered intraperitoneally at a dose of 6 mg/kg. The drug was dissolved in an ethanol: water solution (3:1). This carrier was administered in the control rats. Isoproterenol (Isurprel®, Wintrop Laboratories) was then administered (25 μg/kg s.c.), either 15(n=13), 60(n=12) or 90(n=12) minutes after the beta blocker was administered. Blood pressures and heart rates were recorded at 3, 5, 10, 15, 20, 30, 45 and 60 minutes after isoproterenol administration in all three trials. Both control and experimental animals were unrestrained and free moving in their home cages throught the experiment. Heart rates and mean blood pressure were calculated from the data and a one-way ANOVA was determined at each time interval. The results are shown in FIG. 2 for control vehicle and compound 17 at 15(), 60() and 90() minutes prior to isoproterenol administration at time zero. Resting heart rates were similar in all 4 groups prior to administration of isoproterenol; 342±12; 375±14; 372±19 and 385±17 beats/minute, respectively. […] Data are shown as mean±standard error of the mean.

- Observed pseudo first order hydrolytic rate constant k ([1]; 0.01 N NaOH, ± SEM): 1.56 ± 0.04 × 10^-2 min^-1
- half-life ([1]; 0.01 n naoh, pH 12, 0.01 N NaOH, read-out: Half-life t1/2): 44.4 min
SMILES: CC(C)NCC(O)COc1ccc(CC(=O)OC2CC(C)(C)CC(C)(C)C2)cc1 (centres unmarked) [Compound 17, 3,3,5,5-Tetramethylcyclohexyl 4-(2-hydroxy-3-isopropylamino)propoxyphenylacetate oxalate 3/4 hydrate]
- mean change in blood pressure at 10 minutes vs compound 18 group [2]: significantly different from the group treated with compound 18
- heart rate response to isoproterenol ([3]; 15 or 60 minutes prior to isoproterenol 25 μg/kg s.c., FIG. 2, hydrate): attentuated heart rate response; also recorded: significant activity on heart rate
- resting heart rate prior to isoproterenol ([3]; 15 minutes prior to isoproterenol): 375±14 beats/minute
- resting heart rate prior to isoproterenol ([3]; 60 minutes prior to isoproterenol): 372±19 beats/minute
- heart rate activity at 90 minutes ([3]; 90 minutes prior to isoproterenol, FIG. 2): disappears at 90 minutes
- resting heart rate prior to isoproterenol ([3]; 90 minutes prior to isoproterenol): 385±17 beats/minute
